Laboratory results as given in patent publication US10906897B2, “Microbiocidal heterobicyclic derivatives” (priority 2015, dated 2021).

Legend:
[1] = test system: Glomerella lagenarium (Colletotrichum lagenarium); test: Glomerella lagenarium (Colletotrichum lagenarium) / liquid culture (Anthracnose); type: cell-based; conditions: Colletotrichum orbiculare, growth inhibition photometrically 3-4 days after application, compared to untreated control
[2] = test system: Botryotinia fuckeliana (Botrytis cinerea); test: Botryotinia fuckeliana (Botrytis cinerea) / liquid culture (Gray mould); type: cell-based; conditions: growth inhibition photometrically 3-4 days after application, compared to untreated control
Gaeumannomyces graminis = Gaeumannomyces graminis / liquid culture (Take-all of cereals); type: cell-based; conditions: growth inhibition photometrically 4-5 days after application, compared to untreated control
Fusarium culmorum = test: microbe, parasite or virus in culture; type: cell-based; conditions: read-out: control of Fusarium culmorum
[3] = test system: Monographella nivalis (Microdochium nivale); test: Monographella nivalis (Microdochium nivale) / liquid culture (foot rot cereals); type: cell-based; conditions: 96 h, growth inhibition photometrically 4-5 days after application, compared to untreated control
[4] = test system: Magnaporthe grisea (Pyricularia oryzae); test: microbe, parasite or virus in culture; type: cell-based; conditions: read-out: control of Magnaporthe grisea

CC1(C)N=C(c2cnc3c(F)cccn23)c2cccc(F)c2C1(F)F [Compound E-19, 4,4,5-trifluoro-1-(8-fluoroimidazo[1,2-a]pyridin-3-yl)-3,3-dimethyl-isoquinoline]
inhibition of growth at 20 ppm [1]: ≥ 80% | melting point: 145 to 146 °C | inhibition of growth at 20 ppm [2]: ≥ 80%

CC1(C)N=C(c2cnn3ccccc23)c2cccc(F)c2C1(C)C [Compound E-58, 5-fluoro-3,3,4,4-tetramethyl-1-pyrazolo[1,5-a]pyridin-3-yl-isoquinoline]
inhibition of growth at 20 ppm (Gaeumannomyces graminis): ≥ 80% | inhibition of growth at 20 ppm [1]: ≥ 80% | melting point: 124 to 126 °C | inhibition of growth at 20 ppm [2]: ≥ 80%

CC1(C)N=C(c2cnc3c(F)cccn23)c2cccc(F)c2C1O (centres unmarked) [Compound E-14, 5-fluoro-1-(8-fluoroimidazo[1,2-a]pyridin-3-yl)-3,3-dimethyl-4H-isoquinolin-4-ol]
inhibition of growth at 20 ppm [1]: ≥ 80% | melting point: 219 °C

CC1(C)N=C(c2cnc3c(OC(F)F)cccn23)c2cccc(F)c2C1(C)C [Compound E-7, 1-[8-(difluoromethoxy)imidazo [1,2-a]pyridin-3-yl]-5-fluoro-3,3,4,4-tetramethyl-isoquinoline]
inhibition of growth at 20 ppm [1]: ≥ 80% | melting point: 121 to 122 °C | inhibition of growth at 20 ppm [2]: ≥ 80%

CC1(C)N=C(c2cnc3cc(O)ccn23)c2cccc(F)c2C1(C)C [Compound E-49, 3-(5-fluoro-3,3,4,4-tetramethyl-1-isoquinolyl)imidazo[1,2-a]pyridin-7-ol]
inhibition of growth at 20 ppm [1]: ≥ 80% | melting point: 246 to 247 °C | inhibition of growth at 20 ppm [2]: ≥ 80%

Cc1cccc2ncc(C3=NC(C)(C)C(C)(C)c4c(F)cccc43)n12 [Compound E-30, 5-fluoro-3,3,4,4-tetramethyl-1-(5-methylimidazo[1,2-a]pyridin-3-yl)isoquinoline]
inhibition of growth at 20 ppm [1]: ≥ 80% | melting point: 139 to 140 °C | inhibition of growth at 20 ppm [2]: ≥ 80%

CC1(C)Cc2ccccc2C(c2cnc3c(Br)cccn23)=N1 [Compound E-41, 1-(8-bromoimidazo[1,2-a]pyridin-3-yl)-3,3-dimethyl-4H-isoquinoline]
inhibition of growth at 20 ppm (Gaeumannomyces graminis): ≥ 80% | melting point: 132 to 133 °C

COc1ccc2ncc(C3=NC(C)(C)C(C)(C)c4c(F)cccc43)n2c1 [Compound E-25, 5-fluoro-1-(6-methoxyimidazo[1,2-a]pyridin-3-yl)-3,3,4,4-tetramethyl-isoquinoline]
inhibition of growth at 20 ppm (Gaeumannomyces graminis): ≥ 80% | melting point: 214 to 215 °C

CCc1cccn2c(C3=NC(C)(C)C(C)(C)c4c(F)cccc43)cnc12 [Compound E-21, 1-(8-ethylimidazo[1,2-a]pyridin-3-yl)-5-fluoro-3,3,4,4-tetramethyl-isoquinoline]
inhibition of growth at 20 ppm (Fusarium culmorum): ≥ 80% | inhibition of growth at 20 ppm [3]: ≥ 80% | inhibition of growth at 20 ppm [1]: ≥ 80% | inhibition of growth at 20 ppm [2]: ≥ 80%

Cc1c(Br)ccc2c(C3=NC(C)(C)C(=O)c4ccccc43)cnn12 [Compound E-78, 1-(6-bromo-7-methyl-pyrazolo[1,5-a]pyridin-3-yl)-3,3-dimethyl-isoquinolin-4-one]
inhibition of growth at 20 ppm (Fusarium culmorum): ≥ 80% | inhibition of growth at 20 ppm [3]: ≥ 80% | inhibition of growth at 60 ppm [4]: ≥ 80% | inhibition of growth at 20 ppm [1]: ≥ 80% | melting point: 166 to 168 °C | inhibition of growth at 20 ppm [2]: ≥ 80%

CC1(C)N=C(c2cnc3c(O)cccn23)c2cccc(F)c2C1(C)C [Compound E-27, 3-(5-fluoro-3,3,4,4-tetramethyl-1-isoquinolyl)imidazo[1,2-a]pyridin-8-ol]
inhibition of growth at 20 ppm [1]: ≥ 80% | melting point: 271 to 272 °C | inhibition of growth at 20 ppm [2]: ≥ 80%

CC1(C)N=C(c2cnc3cc(C#N)ccn23)c2cccc(F)c2C1(C)C [Compound E-46, 3-(5-fluoro-3,3,4,4-tetramethyl-1-isoquinolyl)imidazo[1,2-a]pyridine-7-carbonitrile]
inhibition of growth at 20 ppm [1]: ≥ 80% | melting point: 193 to 194 °C | inhibition of growth at 20 ppm [2]: ≥ 80%

CC1(C)N=C(c2cnn3cc(C#N)ccc23)c2ccccc2C1(F)F [Compound E-85, 3-(4,4-difluoro-3,3-dimethyl-1-isoquinolyl)pyrazolo[1,5-a]pyridine-6-carbonitrile]
inhibition of growth at 60 ppm [4]: ≥ 80% | melting point: 191 to 194 °C | inhibition of growth at 20 ppm [2]: ≥ 80%

Cc1ccc2c(C3=NC(C)(C)C(=O)c4cc(F)ccc43)cnn2c1C [Compound E-74, 1-(6,7-dimethylpyrazolo[1,5-a]pyridin-3-yl)-6-fluoro-3,3-dimethyl-isoquinolin-4-one]
inhibition of growth at 20 ppm (Fusarium culmorum): ≥ 80% | inhibition of growth at 60 ppm [4]: ≥ 80% | inhibition of growth at 20 ppm [1]: ≥ 80% | melting point: 168 to 170 °C | inhibition of growth at 20 ppm [2]: ≥ 80%

CC1(C)Cc2c(Cl)cccc2C(c2cnc3c(F)cccn23)=N1 [Compound E-11, 5-chloro-1-(8-fluoroimidazo[1,2-a]pyridin-3-yl)-3,3-dimethyl-4H-isoquinoline]
inhibition of growth at 20 ppm [1]: ≥ 80% | melting point: 122 to 123 °C | inhibition of growth at 20 ppm [2]: ≥ 80%

Cc1cccn2c(C3=NCC4(CCC4)c4ccccc43)cnc12 [Compound E-53, 1-(8-methylimidazo[1,2-a]pyridin-3-yl)spiro[3H-isoquinoline-4,1′-cyclobutane]]
inhibition of growth at 20 ppm [3]: ≥ 80% | inhibition of growth at 60 ppm [4]: ≥ 80% | melting point: 127 to 129 °C | inhibition of growth at 20 ppm [2]: ≥ 80%

Cc1ccn2c(C3=NC(C)(C)C(C)(C)c4c(F)cccc43)cnc2c1Cl [Compound E-47, 1-(8-chloro-7-methyl-imidazo[1,2-a]pyridin-3-yl)-5-fluoro-3,3,4,4-tetramethyl-isoquinoline]
inhibition of growth at 20 ppm (Fusarium culmorum): ≥ 80% | inhibition of growth at 20 ppm [1]: ≥ 80% | melting point: 185 to 186 °C | inhibition of growth at 20 ppm [2]: ≥ 80%

CC1(C)Cc2c(F)cccc2C(c2cnc3c(Br)cccn23)=N1 [Compound E-16, 1-(8-bromoimidazo[1,2-a]pyridin-3-yl)-5-fluoro-3,3-dimethyl-4H-isoquinoline]
inhibition of growth at 20 ppm [1]: ≥ 80% | melting point: 179 to 181 °C

CC1(C)Cc2c(Cl)cccc2C(c2cnc3c(OC(F)F)cccn23)=N1 [Compound E-15, 5-chloro-1-[8-(difluoromethoxy)imidazo [1,2-a]pyridin-3-yl]-3,3-dimethyl-4H-isoquinoline]
inhibition of growth at 20 ppm [3]: ≥ 80% | melting point: 114 to 115 °C

CC1(C)N=C(c2cnc3c(Cl)c(Cl)ccn23)c2ccccc2C1(F)F [Compound E-56, 1-(7,8-dichloroimidazo[1,2-a]pyridin-3-yl)-4,4-difluoro-3,3-dimethyl-isoquinoline]
inhibition of growth at 60 ppm [4]: ≥ 80% | melting point: > 210 °C | inhibition of growth at 20 ppm [2]: ≥ 80%

CC1(C)N=C(c2cnc3c(Br)cccn23)c2cccc(F)c2C1(F)F [Compound E-37, 1-(8-bromoimidazo[1,2-a]pyridin-3-yl)-4,4,5-trifluoro-3,3-dimethyl-isoquinoline]
inhibition of growth at 20 ppm (Gaeumannomyces graminis): ≥ 80% | inhibition of growth at 20 ppm [1]: ≥ 80%

CC1(C)N=C(c2cnc3ccccn23)c2cccc(F)c2C1(C)C [Compound E-1, 5-fluoro-1-imidazo[1,2-a]pyridin-3-yl-3,3,4,4-tetramethyl-isoquinoline]
inhibition of growth at 20 ppm (Fusarium culmorum): ≥ 80% | inhibition of growth at 20 ppm (Gaeumannomyces graminis): ≥ 80% | inhibition of growth at 20 ppm [1]: ≥ 80% | melting point: 129 to 130 °C | inhibition of growth at 20 ppm [2]: ≥ 80%

COc1cccn2c(C3=NC(C)(C)C(C)(C)c4c(F)cccc43)cnc12 [Compound E-24, 5-fluoro-1-(8-methoxyimidazo[1,2-a]pyridin-3-yl)-3,3,4,4-tetramethyl-isoquinoline]
inhibition of growth at 20 ppm [3]: ≥ 80% | inhibition of growth at 20 ppm [1]: ≥ 80% | melting point: 130 °C | inhibition of growth at 20 ppm [2]: ≥ 80%

CSc1cccn2c(C3=NC(C)(C)Cc4c(F)cccc43)cnc12 [Compound E-17, 5-fluoro-3,3-dimethyl-1-(8-methylsulfanyl-imidazo[1,2-a]pyridin-3-yl)-4H-isoquinoline]
inhibition of growth at 20 ppm [1]: ≥ 80% | melting point: 119 to 120 °C

CC1(C)N=C(c2cnc3c(C#N)cccn23)c2cccc(F)c2C1(C)C [Compound E-38, 3-(5-fluoro-3,3,4,4-tetramethyl-1-isoquinolyl)imidazo[1,2-a]pyridine-8-carbonitrile]
inhibition of growth at 20 ppm [3]: ≥ 80% | inhibition of growth at 20 ppm (Gaeumannomyces graminis): ≥ 80% | inhibition of growth at 20 ppm [1]: ≥ 80% | inhibition of growth at 20 ppm [2]: ≥ 80%

CC1(C)N=C(c2cnc3c(C(F)(F)F)cccn23)c2cccc(F)c2C1(C)C [Compound E-29, 5-fluoro-3,3,4,4-tetramethyl-1-[8-(trifluoromethyl)imidazo [1,2-a]pyridin-3-yl]isoquinoline]
inhibition of growth at 20 ppm [3]: ≥ 80% | inhibition of growth at 20 ppm [1]: ≥ 80% | melting point: 141 to 142 °C | inhibition of growth at 20 ppm [2]: ≥ 80%

COc1ccn2c(C3=NC(C)(C)C(C)(C)c4c(F)cccc43)cnc2c1 [Compound E-48, 5-fluoro-1-(7-methoxyimidazo[1,2-a]pyridin-3-yl)-3,3,4,4-tetramethyl-isoquinoline]
inhibition of growth at 20 ppm [1]: ≥ 80% | melting point: 139 to 140 °C | inhibition of growth at 20 ppm [2]: ≥ 80%

CC1(C)N=C(c2cnc3c(Cl)cccn23)c2cccc(F)c2C1(C)C [Compound E-32, 1-(8-chloroimidazo[1,2-a]pyridin-3-yl)-5-fluoro-3,3,4,4-tetramethyl-isoquinoline]
inhibition of growth at 20 ppm (Fusarium culmorum): ≥ 80% | inhibition of growth at 20 ppm [1]: ≥ 80% | melting point: 167 to 168 °C | inhibition of growth at 20 ppm [2]: ≥ 80%
